These results are taken from PubChem BioAssay AID248 (DTP/NCI, 2004).

Several values for one entry are separate records, joined by “and”; a condition that tells them apart may be missing. Equal entries are not always repeated. Inconclusive results and toxic doses are left out.

In this test the test system is L1210 leukemia ip in BDF1 mice, survival T/C. Put plainly: NCI In Vivo Anticancer Drug Screen. Data for tumor model L1210 Leukemia (intraperitoneal) in B6D2F1 (BDF1) mice. As to conditions: endpoint: mean survival time, higher = longer survival. In short, it runs like this: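 Value reflects the ratio of survival in compound-treated mice to survival in vehicle-treated controls, with both groups carrying the same transplanted tumor.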

The mark [1] stands for this setting: dose: 100.0 mg/kg/injection, schedule: Q04DX002 (ip), vehicle: Klucel (hydroxypropylcellulose) (HPC).
Setting [2] is: dose: 200.0 mg/kg/injection, schedule: Q04DX002 (ip), vehicle: Klucel (hydroxypropylcellulose) (HPC).
Where [3] appears, read: dose: 100.0 mg/kg/injection, schedule: Q04DX003 (ip), vehicle: Klucel (hydroxypropylcellulose) (HPC).
The mark [4] stands for this setting: dose: 200.0 mg/kg/injection, schedule: Q04DX003 (ip), vehicle: Klucel (hydroxypropylcellulose) (HPC).
[5] abbreviates: dose: 50.0 mg/kg/injection, schedule: Q04DX003 (ip), vehicle: saline with Tween-80.
The mark [6] stands for this setting: dose: 100.0 mg/kg/injection, schedule: Q04DX003 (ip), vehicle: saline with Tween-80.
Setting [7] is: dose: 200.0 mg/kg/injection, schedule: Q04DX003 (ip), vehicle: saline with Tween-80.
The mark [8] stands for this setting: dose: 100.0 mg/kg/injection, schedule: Q01DX009 (ip), vehicle: saline with Tween-80.
Where [9] appears, read: dose: 200.0 mg/kg/injection, schedule: Q01DX009 (ip), vehicle: saline with Tween-80.
Where [10] appears, read: dose: 400.0 mg/kg/injection, schedule: Q01DX009 (ip), vehicle: saline with Tween-80.
The mark [11] stands for this setting: dose: 400.0 mg/kg/injection, schedule: Q04DX003 (ip), vehicle: Klucel (hydroxypropylcellulose) (HPC).
The mark [12] stands for this setting: dose: 75.0 mg/kg/injection, schedule: Q01DX001 (ip), vehicle: saline.
Where [13] appears, read: dose: 150.0 mg/kg/injection, schedule: Q01DX001 (ip), vehicle: saline.

For `CCSC(=O)Nc1cccc(OC(=O)NC)c1`, the T/C was 100 % of control (dose: 100.0 mg/kg/injection, schedule: Q01DX001 (ip), vehicle: saline with Tween-80); 97 % of control (dose: 200.0 mg/kg/injection, schedule: Q01DX001 (ip), vehicle: saline with Tween-80); 97 % of control (dose: 400.0 mg/kg/injection, schedule: Q01DX001 (ip), vehicle: saline with Tween-80).
Turning to `Cc1nonc1C(N)=O`, the T/C reads like this: under setting [1], 109 % of control; under setting [2], 102 % of control; (dose: 400.0 mg/kg/injection, schedule: Q04DX002 (ip), vehicle: Klucel (hydroxypropylcellulose) (HPC)) 95 % of control.
Regarding `ClC1=C(Cl)C(Cl)=C(Cl)C1=Cc1ccccc1`, the T/C is 113 % of control (dose: 3.13 mg/kg/injection, schedule: Q01DX009 (ip), vehicle: saline with Tween-80); 107 % of control (dose: 6.25 mg/kg/injection, schedule: Q01DX009 (ip), vehicle: saline with Tween-80); 100 % of control (dose: 25.0 mg/kg/injection, schedule: Q04DX002 (ip), vehicle: Klucel (hydroxypropylcellulose) (HPC)); 90 % of control (dose: 50.0 mg/kg/injection, schedule: Q04DX002 (ip), vehicle: Klucel (hydroxypropylcellulose) (HPC)).
In the case of `CCOC(=O)/C(=C\c1ccccc1)P(=O)(OCC)c1ccccc1` (configuration not stated), the T/C was 91 % of control (dose: 25.0 mg/kg/injection, schedule: Q01DX009 (ip), vehicle: Klucel (hydroxypropylcellulose) (HPC)); 92 % of control (dose: 50.0 mg/kg/injection, schedule: Q01DX009 (ip), vehicle: Klucel (hydroxypropylcellulose) (HPC)); 96 % of control (dose: 100.0 mg/kg/injection, schedule: Q01DX009 (ip), vehicle: Klucel (hydroxypropylcellulose) (HPC)); 95 % of control under setting [3]; 96 % of control under setting [4].
Take `CCC1COC(Nc2cccc3c2CCCC3)=N1` (configuration not stated): the T/C under setting [5] was 92 % of control, the T/C under setting [6] was 92 % of control and the T/C under setting [7] was 92 % of control.
For the compound `CS(=O)(=O)OCCN(CCOS(C)(=O)=O)c1cccc(N)c1`, the T/C runs as follows: (dose: 0.22 mg/kg/injection, schedule: Q01DX001 (ip), vehicle: saline) 105 % of control; (dose: 0.33 mg/kg/injection, schedule: Q01DX001 (ip), vehicle: saline) 105 % of control; (dose: 0.5 mg/kg/injection, schedule: Q01DX001 (ip), vehicle: saline) 97 % of control and 110 % of control; (dose: 0.75 mg/kg/injection, schedule: Q01DX001 (ip), vehicle: saline) 106 % of control; (dose: 1.0 mg/kg/injection, schedule: Q01DX001 (ip), vehicle: saline) 109 % of control; (dose: 2.0 mg/kg/injection, schedule: Q01DX001 (ip), vehicle: saline) 117 % of control. The T/C (dose: 3.5 mg/kg/injection, schedule: Q01DX001 (ip), vehicle: saline) is 116 % of control; the T/C (dose: 5.3 mg/kg/injection, schedule: Q01DX001 (ip), vehicle: saline) is 91 % of control; the T/C (dose: 8.0 mg/kg/injection, schedule: Q01DX001 (ip), vehicle: saline) was 209 % of control and 86 % of control.
For `C=C(Br)CNC(=O)NCC(=C)Br`, the T/C was 105 % of control under setting [8], 100 % of control under setting [9] and 105 % of control under setting [10].
On to `COc1ccc(F)cc1CC#N`, for which the T/C was 98 % of control under setting [1] and 98 % of control under setting [2].
Regarding `N=C1SCCS1`, the T/C (dose: 100.0 mg/kg/injection, schedule: Q04DX002 (ip), vehicle: saline) is 92 % of control; the T/C (dose: 200.0 mg/kg/injection, schedule: Q04DX002 (ip), vehicle: saline) is 101 % of control; the T/C (dose: 400.0 mg/kg/injection, schedule: Q04DX002 (ip), vehicle: saline) was 105 % of control.
Take `[O-]/[N+](=C\c1cccc(Cl)c1)c1ccccc1`: the T/C reads like this: (dose: 50.0 mg/kg/injection, schedule: Q01DX001 (ip), vehicle: saline) 102 % of control; (dose: 100.0 mg/kg/injection, schedule: Q01DX001 (ip), vehicle: saline) 100 % of control; under setting [3], 107 % of control; (dose: 200.0 mg/kg/injection, schedule: Q01DX001 (ip), vehicle: saline) 100 % of control; under setting [4], 100 % of control; (dose: 400.0 mg/kg/injection, schedule: Q01DX001 (ip), vehicle: saline) 112 % of control.
In the case of `COCCCNP(=S)(N1CC1)N1CC1`, the T/C is, setting by setting: (dose: 2.0 mg/kg/injection, schedule: Q01DX Z (ip), vehicle: saline) 92 % of control; (dose: 4.0 mg/kg/injection, schedule: Q01DX Z (ip), vehicle: saline) 116 % of control.
`CN(C)c1ccccc1C(=O)N/N=C\c1ccc(O)c(O)c1`: the T/C is 87 % of control under setting [8]; 94 % of control (dose: 100.0 mg/kg/injection, schedule: Q04DX002 (ip), vehicle: saline with Tween-80); 87 % of control under setting [9]; 94 % of control (dose: 200.0 mg/kg/injection, schedule: Q04DX002 (ip), vehicle: saline with Tween-80); 90 % of control under setting [10]; 90 % of control (dose: 400.0 mg/kg/injection, schedule: Q04DX002 (ip), vehicle: saline with Tween-80).
For the compound `CCC(C(O)c1ccccc1)[N+](=O)[O-]` (configuration not stated), the T/C by setting is: (dose: 100.0 mg/kg/injection, schedule: Q04DX003 (ip), vehicle: other) 100 % of control; (dose: 200.0 mg/kg/injection, schedule: Q04DX003 (ip), vehicle: other) 100 % of control; (dose: 400.0 mg/kg/injection, schedule: Q04DX003 (ip), vehicle: other) 96 % of control.
`Cc1cccc(-n2cnc3c(=O)[nH]c(N)nc32)c1`: the T/C was 95 % of control under setting [3], 95 % of control under setting [4] and 93 % of control under setting [11].
For `CNC(=O)NC(C)=C(C#N)C#N`, the T/C runs as follows: under setting [12], 94 % of control; under setting [13], 111 % of control.
As to `O=C(O)C(Cc1ccccc1)N1C(=O)C2C3CCC(C3)C2C1=O` (configuration not stated), the T/C (dose: 25.0 mg/kg/injection, schedule: Q04DX003 (ip), vehicle: saline with Tween-80) is 93 % of control; the T/C under setting [5] is 93 % of control; the T/C under setting [6] is 100 % of control and 107 % of control; the T/C under setting [7] is 110 % of control; the T/C (dose: 400.0 mg/kg/injection, schedule: Q04DX003 (ip), vehicle: saline with Tween-80) is 103 % of control.
`CCCCNCCCC(C(=O)O)c1ccccc1` (configuration not stated): the T/C (dose: 75.0 mg/kg/injection, schedule: Q01DX001 (ip), vehicle: carboxymethylcellulose (CMC)) was 100 % of control; the T/C (dose: 150.0 mg/kg/injection, schedule: Q01DX001 (ip), vehicle: carboxymethylcellulose (CMC)) was 90 % of control; the T/C (dose: 300.0 mg/kg/injection, schedule: Q01DX001 (ip), vehicle: carboxymethylcellulose (CMC)) was 90 % of control.
With `[N-]=C(CC(=O)c1ccccc1)c1ccccc1.[N-]=C(CC(=O)c1ccccc1)c1ccccc1.[Ni+2]`, the T/C (dose: 12.5 mg/kg/injection, schedule: Q04DX003 (ip), vehicle: Klucel (hydroxypropylcellulose) (HPC)) is 90 % of control; the T/C (dose: 25.0 mg/kg/injection, schedule: Q04DX003 (ip), vehicle: Klucel (hydroxypropylcellulose) (HPC)) was 93 % of control; the T/C (dose: 50.0 mg/kg/injection, schedule: Q04DX003 (ip), vehicle: Klucel (hydroxypropylcellulose) (HPC)) was 91 % of control; the T/C under setting [3] was 90 % of control; the T/C under setting [4] is 93 % of control; the T/C under setting [11] was 90 % of control.
`COc1ccc(/C=C/C(=O)c2ccc(OCc3ccccc3)c(OC)c2)cc1OC`: the T/C (dose: 50.0 mg/kg/injection, schedule: Q01DX009 (ip), vehicle: saline with Tween-80) is 105 % of control; the T/C under setting [8] was 104 % of control; the T/C under setting [9] is 98 % of control; the T/C under setting [10] is 90 % of control; the T/C (dose: 500.0 mg/kg/injection, schedule: Q01DX009 (ip), vehicle: saline with Tween-80) is 102 % of control.
In the case of `CSc1n[nH]c(/N=N/N(C)C)c1C(N)=O`, the T/C is, setting by setting: under setting [3], 99 % of control; under setting [4], 103 % of control; under setting [11], 111 % of control.
On to `CCCCCCCCCCCCc1ccc(-c2cc(-c3ccccc3)cc(-c3ccccc3)c2)cc1`, for which the T/C under setting [12] was 100 % of control; the T/C under setting [13] is 89 % of control; the T/C (dose: 300.0 mg/kg/injection, schedule: Q01DX001 (ip), vehicle: saline) was 94 % of control.
